Drawing on patent US11702418B2, “SOS1 inhibitors” (priority 2019, dated 2023), this text covers Ki and IC50 for 25 molecules.

In assay [1] the target is recombinant human SOS1 polypeptide (amino acids 560-1049) (Homo sapiens (Human), UniProt Q07889). Briefly: biochemical. The format is binding. As to conditions: read-out: Ki, Inhibition of Labeled Tracer Binding to SOS1.
The subject of assay [2] is pERK in MKN1 cells. Briefly: cells. The format is cell-based. The note with it: Homo sapiens.
Method: The cells were incubated for approximately 0.5-1 hour with the compounds solubilized in DMSO at 37° C. Cells were immediately fixed by adding 50 μL of 4% formaldehyde to all wells in a fume hood and the plates were incubated for 20 minutes at room temperature. The formaldehyde was discarded from the plates and 150 μL of ice-cold methanol was added to permeabilize the cells for 10 minutes at −20° C. The methanol was discarded from each of the plates and any liquid remaining in the plate by tapping the plate against paper towels. […] The plates were incubated overnight at 4° C. on a shaker.
On Assay day 2, the primary antibody solution was removed. […] The secondary antibody solution as removed and each plate was washed with PBST 3× times. Any liquid remaining was discarded and the plate was imaged using the Licor Odyssey machine according to the manufacturer's instruction, using a set focus length at 3 mm and both 800 nm and 700 nm filters. The GAPDH normalized scan values for each well were divided by the average of vehicle wells to get the % of pERK inhibition. The IC50 values were then calculated with the Graph pad Prism software.
Where [3] appears, read: HTRF displacement, Cy5 labelled tracer, Morrison equation for competitive binding.
[4] abbreviates: MKN-1, pERK inhibition, In-Cell Western, MKN1 or H358 cells (Table 24 does not say which), 0.5-1 hour incubation, read-out: IC50.

Structures can show the parent of a compound that is named as a salt. Where two headings read alike, the source gives them in different places.

recombinant human SOS1 polypeptide (amino acids 560-1049), sequence (Q07889 560-1049): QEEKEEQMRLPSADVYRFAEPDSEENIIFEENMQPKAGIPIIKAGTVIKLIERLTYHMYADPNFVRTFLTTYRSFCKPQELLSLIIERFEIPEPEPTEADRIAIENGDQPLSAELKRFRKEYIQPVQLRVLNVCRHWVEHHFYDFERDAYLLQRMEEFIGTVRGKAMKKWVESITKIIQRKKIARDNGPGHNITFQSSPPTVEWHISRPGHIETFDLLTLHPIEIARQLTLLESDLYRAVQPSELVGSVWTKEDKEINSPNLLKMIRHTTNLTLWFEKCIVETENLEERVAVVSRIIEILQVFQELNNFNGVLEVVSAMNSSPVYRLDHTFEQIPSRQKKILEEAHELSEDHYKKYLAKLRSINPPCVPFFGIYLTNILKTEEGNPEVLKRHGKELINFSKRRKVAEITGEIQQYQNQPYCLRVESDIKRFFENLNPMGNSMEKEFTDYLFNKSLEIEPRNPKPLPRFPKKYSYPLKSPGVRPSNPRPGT

A word on the Ki: it is a measure of affinity in units of concentration, obtained from inhibition or displacement. One may read the IC50 as the concentration that inhibits the measured activity by half. As for `Cc1c([C@@H](C)Nc2nnc(C)c3cnc(N4C[C@H]5C[C@@H]4CO5)cc23)cccc1C(F)(F)F` [Example 12-9], in assay [1] (setting [3]), the Ki turned out to be 0.47 nM. The 50% inhibitory concentration (IC50) in assay [2] (setting [4]) was found to be 10 nM.

Regarding `Cc1nnc(N[C@H](C)c2cc(F)cc(C#N)c2)c2cc(N3CCOCC3)ncc12` [Example 6-17, (R)-3-fluoro-5-(1-((4-methyl-7-morpholinopyrido[3,4-d]pyridazin-1-yl)amino)ethyl)benzonitrile], the Ki in assay [1] (setting [3]) turned out to be 56.5 nM. For the same molecule, in assay [2] (setting [4]), the half-inhibitory concentration (IC50) came out at 412 nM.

With `Cc1c([C@@H](C)Nc2nnc(C)c3cnc(N4C[C@H](C)O[C@@H](C)C4)cc23)cccc1C(F)(F)F` [Example 12-6], the Ki in assay [1] (setting [3]) was 0.87 nM. Further, the IC50 in assay [2] (setting [4]) was 522 nM.

Take `COCCN1C[C@H]2CC[C@@H]1CN2c1cc2c(N[C@H](C)c3cccc(C#N)c3C)nnc(C)c2cn1` [Example 12-70]: the inhibition constant (Ki) in assay [1] (setting [3]) is 0.68 nM. Also, the 50% inhibitory concentration (IC50) in assay [2] (setting [4]) was 13 nM.

With `Cc1c(C#N)cccc1[C@@H](C)Nc1nnc(C)c2cnc(N3CCN(C)CC3)cc12` [Example 12-44], the inhibition constant Ki in assay [1] (setting [3]) is 1.16 nM. The concentration for half-maximal inhibition (IC50) in assay [2] (setting [4]) amounted to 38 nM.

`Cc1c(C#N)cccc1[C@@H](C)Nc1nnc(C)c2cnc(N3CCNCC3)cc12` [Example 12-25]: the Ki in assay [1] (setting [3]) stood at 2.41 nM. The half-maximal inhibitory concentration (IC50) in assay [2] (setting [4]) was determined as 35 nM.

In the case of `Cc1c([C@@H](C)Nc2nnc(C)c3ccc(N4CC5(CCN(C)C5)C4)cc23)cccc1C(F)(F)F` [Example 10-41, (R)-4-methyl-N-(1-(2-methyl-3-(trifluoromethyl)phenyl)ethyl)-7-(6-methyl-2,6-diazaspiro[3.4]octan-2-yl)phthalazin-1-amine hydrochloride salt], the inhibitory constant (Ki) in assay [1] was found to be 0.52 nM. Further, the IC50 in assay [2] (MKN-1) turned out to be 30 nM.

Regarding `Cc1nnc(N[C@H](C)c2ccc(F)cc2F)c2cc(N3CC(C)(O)C3)ncc12` [Example 12-47], the inhibition constant (Ki) in assay [1] (setting [3]) worked out at 38.7 nM. Also, in assay [2] (setting [4]), the IC50 came to 307 nM.

With `Cc1c([C@@H](C)Nc2nnc(C)c3ccc(N4CCNC5(CC5)C4)cc23)cccc1C(F)(F)F` [Example 10-34, (R)-4-methyl-N-(1-(2-methyl-3-(trifluoromethyl)phenyl)ethyl)-7-(4,7-diazaspiro[2.5]octan-7-yl)phthalazin-1-amine], the inhibition constant (Ki) in assay [1] (setting [3]) came out at 0.56 nM. Besides, the IC50 in assay [2] (setting [4]) stood at 136 nM.

For `Cc1c([C@@H](C)Nc2nnc(C)c3cnc(N4CC5(CCN(C)C5)C4)cc23)cccc1C(F)(F)F` [Example 12-17], the Ki in assay [1] (setting [3]) was 0.46 nM. The IC50 in assay [2] (setting [4]) was determined as 17 nM.

With `Cc1c([C@@H](C)Nc2nnc(C)c3cnc(N4CCN5CCOC[C@@H]5C4)cc23)cccc1C(F)(F)F` [Example 12-14], in assay [1] (setting [3]), the inhibition constant Ki worked out at 0.55 nM. For the same molecule, the IC50 in assay [2] (setting [4]) turned out to be 17 nM.

On to `Cc1c(C#N)cccc1[C@@H](C)Nc1nnc(C)c2ccc(N3CCC(N4CCC4)CC3)cc12` [Example 10-68, (R)-3-(1-((7-(4-(azetidin-1-yl)piperidin-1-yl)-4-methylphthalazin-1-yl)amino)ethyl)-2-methylbenzonitrile], for which, in assay [1] (setting [3]), the inhibition constant Ki is 0.75 nM. In addition, in assay [2] (setting [4]), the IC50 came to 36 nM.

As for `Cc1c(C#N)cccc1[C@@H](C)Nc1nnc(C)c2cc(C(F)(F)F)c(N3CC(C)(O)C3)cc12` [Example 19-3, (R)-3-(1-((7-(3-hydroxy-3-methylazetidin-1-yl)-4-methyl-6-(trifluoromethyl)phthalazin-1-yl)amino)ethyl)-2-methylbenzonitrile], the Ki in assay [1] (setting [3]) was found to be 19.3 nM. Moreover, in assay [2] (setting [4]), the concentration for half-maximal inhibition (IC50) came out at 114 nM.

`Cc1c(C#N)cccc1[C@@H](C)Nc1nnc(C)c2ccc(N3CCN(c4cnn(C)c4)CC3)cc12` [Example 10-70, (R)-2-methyl-3-(1-((4-methyl-7-(4-(1-methyl-1H-pyrazol-4-yl)piperazin-1-yl)phthalazin-1-yl)amino)ethyl)benzonitrile]: the Ki in assay [1] (setting [3]) is 0.89 nM. In addition, the concentration for half-maximal inhibition (IC50) in assay [2] (setting [4]) worked out at 15 nM.

For `Cc1c([C@@H](C)Nc2nnc(C)c3cnc(N4CCN(c5cnn(C)c5)CC4)cc23)cccc1C(F)(F)F` [Example 12-1, (R)-4-methyl-7-(4-(1-methyl-1H-pyrazol-4-yl)piperazin-1-yl)-N-(1-(2-methyl-3-(trifluoromethyl)phenyl)ethyl)pyrido[3,4-d]pyridazin-1-amine], the Ki in assay [1] (setting [3]) turned out to be 0.2 nM. The half-inhibitory concentration (IC50) in assay [2] (setting [4]) came out at 5 nM.

With `Cc1cc(F)ccc1[C@@H](C)Nc1nnc(C)c2cnc(N3CC(C)(N(C)C)C3)cc12` [Example 12-124], the Ki in assay [1] (setting [3]) amounted to 64.5 nM. In addition, the IC50 in assay [2] (setting [4]) came to 856 nM.

Turning to `Cc1c(C#N)cccc1[C@@H](C)Nc1nnc(C)c2ccc(O[C@H]3CCOC3)cc12` [Example 13-3], the Ki in assay [1] (setting [3]) stood at 12.2 nM. For the same molecule, the IC50 in assay [2] (setting [4]) turned out to be 195 nM.

As for `Cc1c(C#N)cccc1[C@@H](C)Nc1nnc(C)c2ccc(N3CC4(COCCN4C)C3)cc12` [Example 10-79, (R)-2-methyl-3-(1-((4-methyl-7-(5-methyl-8-oxa-2,5-diazaspiro[3.5]nonan-2-yl)phthalazin-1-yl)amino)ethyl)benzonitrile Formate salt], the Ki in assay [1] was 4.15 nM. In assay [2] (MKN-1), this molecule gave a 50% inhibitory concentration (IC50) of 16 nM.

Turning to `Cc1c(C#N)cccc1[C@@H](C)Nc1nnc(C)c2cnc(N3CCC(N4CCC4)CC3)cc12` [Example 12-29], in assay [1] (setting [3]), the inhibition constant (Ki) worked out at 1.67 nM. Further, the IC50 in assay [2] (setting [4]) turned out to be 16 nM.

In the case of `Cc1c([C@@H](C)Nc2nnc(C)c3cnc(N4CCC(C)(O)CC4)cc23)cccc1C(F)(F)F` [Example 12-7], the inhibitory constant (Ki) in assay [1] (setting [3]) is 0.4 nM. The IC50 in assay [2] (setting [4]) is 66 nM.

In the case of `Cc1nnc(N[C@H](C)c2cccc(C(F)(F)C(C)(C)O)c2F)c2cc(N3CCN4CCOC[C@@H]4C3)ncc12` [Example 20-2, 1,1-difluoro-1-(2-fluoro-3-((R)-1-((7-((S)-hexahydropyrazino[2,1-c][1,4]oxazin-8(1H)-yl)-4-methylpyrido[3,4-d]pyridazin-1-yl)amino)ethyl)phenyl)-2-methylpropan-2-ol], the Ki in assay [1] (setting [3]) is 0.75 nM. Moreover, in assay [2] (setting [4]), the half-maximal inhibitory concentration (IC50) came out at 8 nM.

In the case of `Cc1nnc(N[C@H](C)c2cc(N)c(F)c(C(F)(F)F)c2)c2cc(N3C[C@H]4C[C@@H]3CO4)ccc12` [Example 16-14, N-((R)-1-(3-amino-4-fluoro-5-(trifluoromethyl)phenyl)ethyl)-7-((1R,4R)-2-oxa-5-azabicyclo[2.2.1]heptan-5-yl)-4-methylphthalazin-1-amine], in assay [1] (setting [3]), the inhibition constant Ki is 1.71 nM. In addition, the IC50 in assay [2] (setting [4]) was 37 nM.

Regarding `Cc1c([C@@H](C)Nc2nncc3ccc(N4CCn5cc(C(F)(F)F)nc5C4C)cc23)cccc1C(F)(F)F` (stereo partly drawn) [Example 1-47, 7-(8-methyl-2-(trifluoromethyl)-5,6-dihydroimidazo[1,2-a]pyrazin-7(8H)-yl)-N-((R)-1-(2-methyl-3-(trifluoromethyl)phenyl)ethyl)phthalazin-1-amine], in assay [1] (setting [3]), the Ki was found to be 2.08 nM. Further, in assay [2] (setting [4]), the IC50 turned out to be 349 nM.

In the case of `Cc1c([C@@H](C)Nc2nnc(C)c3cnc(N4CC(N(C)C)C4)cc23)cccc1C(F)(F)F` [Example 12-20], the inhibition constant (Ki) in assay [1] (setting [3]) is 1.6 nM. Besides, the concentration for half-maximal inhibition (IC50) in assay [2] (setting [4]) was 62 nM.

Regarding `COc1c(C#N)cccc1[C@@H](C)Nc1nnc(C)c2ccc(N3CC(C)(O)C3)cc12` [Example 17-4, (R)-3-(1-((7-(3-hydroxy-3-methlazetidin-1-yl)-4-methylpyridazin-1-yl)amino)ethyl)-2-methoxybenzonitrile], the Ki in assay [1] (setting [3]) was 14.4 nM. The half-inhibitory concentration (IC50) in assay [2] (setting [4]) turned out to be 116 nM.
